Patent US5652247A, “Carbostyril derivatives” (Otsuka Pharmaceutical Co., Ltd, priority 1989, dated 1997)
pIC50: −log10 of the molar value.

Target: T1, V1 receptor (Rattus norvegicus, UniProt P30560)
T1 construct: rat liver plasma membrane preparations; from tissue; host or cells: rat liver plasma membranes
Experiment: V1 receptor binding assay
Settings: [H]^3-Arg-vasopressin 2×10^-10 M, rat liver plasma membrane, 37° C., 10 minutes, pH 8.0

T1 sequence (P30560 whole entry): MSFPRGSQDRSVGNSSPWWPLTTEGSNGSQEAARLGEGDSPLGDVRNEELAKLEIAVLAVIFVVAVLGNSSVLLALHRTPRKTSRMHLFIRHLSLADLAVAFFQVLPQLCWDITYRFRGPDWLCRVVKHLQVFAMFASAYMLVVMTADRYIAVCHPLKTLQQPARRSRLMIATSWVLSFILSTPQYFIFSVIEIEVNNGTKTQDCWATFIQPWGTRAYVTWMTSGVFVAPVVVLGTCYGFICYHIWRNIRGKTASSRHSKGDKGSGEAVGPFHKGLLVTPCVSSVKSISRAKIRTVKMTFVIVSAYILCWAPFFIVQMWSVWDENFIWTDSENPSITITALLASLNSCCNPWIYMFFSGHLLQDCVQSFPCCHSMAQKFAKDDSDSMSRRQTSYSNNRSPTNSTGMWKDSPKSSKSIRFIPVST

| Structure (SMILES) | pIC50 |
| --- | --- |
| C#CCc1ccc(C(=O)N2CCC(N3C(=O)CCc4ccccc43)CC2)cc1 [Example 96, 1-[1-(4-Propargylbenzoyl)-4-piperidinyl]-3,4-dihydrocarbostyril] | 6.22 |
| CN(C)c1ccc(S(=O)(=O)CCCCCOc2ccc(C(=O)N3CCC(N4C(=O)CCc5ccccc54)CC3)cc2)cc1 [Example 290, 1-{1-(4-[5-(4-Dimethylaminophenylsulfonyl)pentyloxy]benzoyl)-4-piperidinyl}-3,4-dihydrocarbostyril] | 6.52 |
